PubChem BioAssay AID2060602 (Molecular Pharmacology Branch, DTP, NCI, 2025)

Tested on: 648629-189-R-J1-PDC complex spheroids viability
Test: Anticancer human tumor 648629-189-R-J1-PDC patient-derived bladder carcinoma cell line growth inhibition [CLK]
Settings: for IC50: curve of first compound; for viability, T/C: stronger effect = lower value
Summary of the method: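 Multi-cell-type spheroids combined patient-derived tumor cells with HUVEC endothelial cells and human mesenchymal stem cells. Paired agents were dosed in half-log steps down from about clinical Cmax, or from 10 microM where Cmax was unknown.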

[1] = second compound 0.0316 µM, first compound 0.0316 µM
[2] = second compound 0.0316 µM, first compound 0.1 µM
[3] = second compound 0.0316 µM, first compound 0.316 µM
[4] = second compound 0.0316 µM, first compound 1 µM
[5] = second compound 0.1 µM, first compound 0.0316 µM
[6] = second compound 0.1 µM, first compound 0.1 µM
[7] = second compound 0.1 µM, first compound 0.316 µM
[8] = second compound 0.1 µM, first compound 1 µM
[9] = second compound 0.316 µM, first compound 0.0316 µM
[10] = second compound 0.316 µM, first compound 0.1 µM
[11] = second compound 0.316 µM, first compound 0.316 µM
[12] = second compound 0.316 µM, first compound 1 µM
[13] = second compound 1 µM, first compound 0.0316 µM
[14] = second compound 1 µM, first compound 0.1 µM
[15] = second compound 1 µM, first compound 0.316 µM
[16] = second compound 1 µM, first compound 1 µM
[17] = second compound 3.16 µM, first compound 0.0316 µM
[18] = second compound 3.16 µM, first compound 0.1 µM
[19] = second compound 3.16 µM, first compound 0.316 µM
[20] = second compound 3.16 µM, first compound 1 µM
[21] = second compound 10 µM, first compound 0.0316 µM
[22] = second compound 10 µM, first compound 0.1 µM
[23] = second compound 10 µM, first compound 0.316 µM
[24] = second compound 10 µM, first compound 1 µM
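Wherever viability, T/C is given: drug exposure lasted seven days before viability readout; 100% = DMSO vehicle control wells.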

In the case of `CC(=O)O[C@H]1C(=O)[C@@]2(C)[C@H]([C@H](OC(=O)c3ccccc3)[C@]3(O)C[C@H](OC(=O)[C@H](O)[C@@H](NC(=O)c4ccccc4)c4ccccc4)C(C)=C1C3(C)C)[C@]1(OC(C)=O)CO[C@@H]1C[C@@H]2O` + CNC(=O)c1ccc(Nc2nc(OC3CCCC3)c3c(-c4ccc5nc(C)oc5c4)c[nH]c3n2)c(OC)c1, the IC50 (second compound 0.0316 µM) is reported as under 31.6 nM, the IC50 (second compound 0.1 µM) is reported as under 31.6 nM and the IC50 (second compound 0.316 µM) is reported as under 31.6 nM. It also gave an IC50 (second compound 1 µM) of under 31.6 nM, an IC50 (second compound 3.16 µM) of under 31.6 nM and an IC50 (second compound 10 µM) of under 31.6 nM. The viability, T/C [1] was 11.1%, the viability, T/C [2] was 9.61% and the viability, T/C [3] was 10%. It also gave a viability, T/C [4] of 12.1%, a viability, T/C (second compound 0.0316 µM, first compound 3.16 µM) of 14.1% and a viability, T/C (second compound 0.0316 µM, first compound 10 µM) of 15.9%. It also gave a viability, T/C [5] of 13.8%, a viability, T/C [6] of 12.4% and a viability, T/C [7] of 11.7%. It also gave a viability, T/C [8] of 12.5%, a viability, T/C (second compound 0.1 µM, first compound 3.16 µM) of 13% and a viability, T/C (second compound 0.1 µM, first compound 10 µM) of 28.7%. The viability, T/C [9] was 40.7%, the viability, T/C [10] was 50.4% and the viability, T/C [11] was 62.9%. For the same compound, the viability, T/C [12] was 70.5%, the viability, T/C (second compound 0.316 µM, first compound 3.16 µM) was 76.1% and the viability, T/C (second compound 0.316 µM, first compound 10 µM) was 97.3%. It also gave a viability, T/C [13] of 40.6%, a viability, T/C [14] of 64.3% and a viability, T/C [15] of 58.8%. For the same compound, the viability, T/C [16] was 66.5%, the viability, T/C (second compound 1 µM, first compound 3.16 µM) was 75% and the viability, T/C (second compound 1 µM, first compound 10 µM) was 76.9%. It also gave a viability, T/C [17] of 33.9%, a viability, T/C [18] of 47.7% and a viability, T/C [19] of 74.3%. It also gave a viability, T/C [20] of 64.2%, a viability, T/C (second compound 3.16 µM, first compound 3.16 µM) of 67.5% and a viability, T/C (second compound 3.16 µM, first compound 10 µM) of 72.7%. It also gave a viability, T/C [21] of 39.9%, a viability, T/C [22] of 42.5% and a viability, T/C [23] of 59.8%. It also gave a viability, T/C [24] of 64.4%, a viability, T/C (second compound 10 µM, first compound 3.16 µM) of 65.7% and a viability, T/C (second compound 10 µM, first compound 10 µM) of 73.2%.
Work on `CCc1c2c(nc3ccc(O)cc13)-c1cc3c(c(=O)n1C2)COC(=O)[C@]3(O)CC` + CNC(=O)c1ccc(Nc2nc(OC3CCCC3)c3c(-c4ccc5nc(C)oc5c4)c[nH]c3n2)c(OC)c1 yielded an IC50 (second compound 0.0316 µM) of under 3.16 nM, an IC50 (second compound 0.1 µM) of under 3.16 nM and an IC50 (second compound 0.316 µM) of under 3.16 nM. For the same compound, the IC50 (second compound 1 µM) was under 3.16 nM, the IC50 (second compound 3.16 µM) was under 3.16 nM and the IC50 (second compound 10 µM) was under 3.16 nM. For the same compound, the viability, T/C (second compound 0.0316 µM, first compound 0.00316 µM) was 30.3%, the viability, T/C (second compound 0.0316 µM, first compound 0.01 µM) was 11.5% and the viability, T/C [1] was 8.79%. The viability, T/C [2] was 5.84%, the viability, T/C [3] was 5.59% and the viability, T/C [4] was 4.59%. The viability, T/C (second compound 0.1 µM, first compound 0.00316 µM) was 30.1%, the viability, T/C (second compound 0.1 µM, first compound 0.01 µM) was 10.5% and the viability, T/C [5] was 7.18%. The viability, T/C [6] was 5.66%, the viability, T/C [7] was 5.26% and the viability, T/C [8] was 2.75%. It also gave a viability, T/C (second compound 0.316 µM, first compound 0.00316 µM) of 14.1%, a viability, T/C (second compound 0.316 µM, first compound 0.01 µM) of 8.48% and a viability, T/C [9] of 7.05%. The viability, T/C [10] was 4.87%, the viability, T/C [11] was 5.55% and the viability, T/C [12] was 4.88%. For the same compound, the viability, T/C (second compound 1 µM, first compound 0.00316 µM) was 11.9%, the viability, T/C (second compound 1 µM, first compound 0.01 µM) was 10.9% and the viability, T/C [13] was 8.46%. The viability, T/C [14] was 5.17%, the viability, T/C [15] was 4.53% and the viability, T/C [16] was 3.56%. It also gave a viability, T/C (second compound 3.16 µM, first compound 0.00316 µM) of 14.8%, a viability, T/C (second compound 3.16 µM, first compound 0.01 µM) of 13.1% and a viability, T/C [17] of 9.98%. It also gave a viability, T/C [18] of 6.24%, a viability, T/C [19] of 7.38% and a viability, T/C [20] of 5.35%. The viability, T/C (second compound 10 µM, first compound 0.00316 µM) was 17.2%, the viability, T/C (second compound 10 µM, first compound 0.01 µM) was 13.8% and the viability, T/C [21] was 10.4%. The viability, T/C [22] was 7.91%, the viability, T/C [23] was 6.48% and the viability, T/C [24] was 4.98%.
